Several values for one entry are separate records, joined by “and”; a condition that tells them apart may be missing. Identical values can stand only once. Toxic doses and inconclusive results are not listed. No stated cut-off is given here; in the data, active means T/C of 150% or more; inactive means T/C below 125%.
Test system: L1210 leukemia ip in BDF1 mice, survival T/C
Assay: NCI In Vivo Anticancer Drug Screen. Data for tumor model L1210 Leukemia (intraperitoneal) in B6D2F1 (BDF1) mice
Conditions: endpoint: mean survival time, higher = longer survival
Procedure, shortened: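 Survival endpoint. Drug-treated group vs vehicle group, expressed as T divided by C. Tumor passaged by transplantation.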

[1] = dose: 100.0 mg/kg/injection, schedule: Q04DX003 (ip), vehicle: Klucel (hydroxypropylcellulose) (HPC)
[2] = dose: 200.0 mg/kg/injection, schedule: Q04DX003 (ip), vehicle: Klucel (hydroxypropylcellulose) (HPC)
[3] = dose: 400.0 mg/kg/injection, schedule: Q04DX003 (ip), vehicle: Klucel (hydroxypropylcellulose) (HPC)
[4] = dose: 100.0 mg/kg/injection, schedule: Q01DX009 (ip), vehicle: Klucel (hydroxypropylcellulose) (HPC)
[5] = dose: 200.0 mg/kg/injection, schedule: Q01DX009 (ip), vehicle: Klucel (hydroxypropylcellulose) (HPC)
[6] = dose: 25.0 mg/kg/injection, schedule: Q04DX003 (ip), vehicle: Klucel (hydroxypropylcellulose) (HPC)
[7] = dose: 50.0 mg/kg/injection, schedule: Q04DX003 (ip), vehicle: Klucel (hydroxypropylcellulose) (HPC)
[8] = dose: 100.0 mg/kg/injection, schedule: Q04DX003 (ip), vehicle: saline with Tween-80
[9] = dose: 100.0 mg/kg/injection, schedule: Q01DX001 (ip), vehicle: saline
[10] = dose: 200.0 mg/kg/injection, schedule: Q01DX001 (ip), vehicle: saline
[11] = dose: 400.0 mg/kg/injection, schedule: Q01DX001 (ip), vehicle: saline

Measured: T/C

CC(NC(=O)NCCCl)C1CC1 (stereo not drawn)
inactive: dose: 100.0 mg/kg/injection, schedule: Q01DX001 (ip), vehicle: Klucel (hydroxypropylcellulose) (HPC) 106 % of control | [1] 97 % of control | dose: 200.0 mg/kg/injection, schedule: Q01DX001 (ip), vehicle: Klucel (hydroxypropylcellulose) (HPC) 103 % of control | [2] 100 % of control | dose: 400.0 mg/kg/injection, schedule: Q01DX001 (ip), vehicle: Klucel (hydroxypropylcellulose) (HPC) 103 % of control | [3] 90 % of control

O=C(CC(=O)c1ccccc1)c1ccccc1.O=C(CC(=O)c1ccccc1)c1ccccc1.O=C(CC(=O)c1ccccc1)c1ccccc1.[Cr]
inactive: dose: 100.0 mg/kg/injection, schedule: Q04DX002 (ip), vehicle: Klucel (hydroxypropylcellulose) (HPC) 93 % of control | dose: 200.0 mg/kg/injection, schedule: Q04DX002 (ip), vehicle: Klucel (hydroxypropylcellulose) (HPC) 101 % of control | dose: 400.0 mg/kg/injection, schedule: Q04DX002 (ip), vehicle: Klucel (hydroxypropylcellulose) (HPC) 104 % of control

COC1=C(OC)C(=O)C(SC/C=C(\C)CCCC(C)CCCC(C)CCCC(C)C)=CC1=O (stereo not drawn)
inactive: dose: 6.25 mg/kg/injection, schedule: Q01DX009 (ip), vehicle: saline with Tween-80 103 % of control | dose: 12.5 mg/kg/injection, schedule: Q01DX009 (ip), vehicle: saline with Tween-80 105 % of control | dose: 25.0 mg/kg/injection, schedule: Q01DX009 (ip), vehicle: saline with Tween-80 100 % of control and 113 % of control | dose: 50.0 mg/kg/injection, schedule: Q01DX009 (ip), vehicle: saline with Tween-80 104 % of control and 122 % of control | dose: 100.0 mg/kg/injection, schedule: Q01DX009 (ip), vehicle: saline with Tween-80 105 % of control and 122 % of control | dose: 200.0 mg/kg/injection, schedule: Q01DX009 (ip), vehicle: saline with Tween-80 115 % of control and 124 % of control | dose: 400.0 mg/kg/injection, schedule: Q01DX009 (ip), vehicle: saline with Tween-80 115 % of control

O=[N+]([O-])c1cc2c3ccccc3oc2c2cccnc12
inactive: [4] 91 % of control | [1] 90 % of control | [5] 90 % of control | [2] 90 % of control | [3] 89 % of control

c1ccc(CN2CCN(CC3CC3)CC2)cc1
inactive: dose: 12.5 mg/kg/injection, schedule: Q04DX003 (ip), vehicle: Klucel (hydroxypropylcellulose) (HPC) 103 % of control | [6] 98 % of control | [7] 110 % of control

CCCN(CCC)CP(=O)(CN(CCC)CCC)CN(CCC)CCC
inactive: dose: 25.0 mg/kg/injection, schedule: Q04DX003 (ip), vehicle: saline with Tween-80 92 % of control | dose: 50.0 mg/kg/injection, schedule: Q04DX003 (ip), vehicle: saline with Tween-80 90 % of control | [8] 93 % of control

Cc1cccc(NC(=O)CCc2ccc(N3C(N)=NC(N)=NC3(C)C)cc2)c1
inactive: dose: 3.13 mg/kg/injection, schedule: Q01DX009 (ip), vehicle: saline 102 % of control | dose: 6.25 mg/kg/injection, schedule: Q01DX009 (ip), vehicle: saline 94 % of control | dose: 12.5 mg/kg/injection, schedule: Q01DX009 (ip), vehicle: saline 97 % of control | dose: 25.0 mg/kg/injection, schedule: Q01DX009 (ip), vehicle: saline 96 % of control | dose: 50.0 mg/kg/injection, schedule: Q01DX009 (ip), vehicle: saline 103 % of control

O=C(Nc1ccc(Cl)cc1)Nc1ccccc1Cl
inactive: dose: 100.0 mg/kg/injection, schedule: Q01DX009 (ip), vehicle: gum acacia 91 % of control | dose: 100.0 mg/kg/injection, schedule: Q04DX003 (ip), vehicle: gum acacia 100 % of control | dose: 200.0 mg/kg/injection, schedule: Q01DX009 (ip), vehicle: gum acacia 87 % of control | dose: 200.0 mg/kg/injection, schedule: Q04DX003 (ip), vehicle: gum acacia 96 % of control | dose: 400.0 mg/kg/injection, schedule: Q01DX009 (ip), vehicle: gum acacia 89 % of control | dose: 400.0 mg/kg/injection, schedule: Q04DX003 (ip), vehicle: gum acacia 102 % of control

Cc1cc(=O)[nH]c(N/N=C/c2ccccc2O)n1
inactive: dose: 25.0 mg/kg/injection, schedule: Q01DX009 (ip), vehicle: Klucel (hydroxypropylcellulose) (HPC) 93 % of control | dose: 50.0 mg/kg/injection, schedule: Q01DX009 (ip), vehicle: Klucel (hydroxypropylcellulose) (HPC) 94 % of control | [9] 98 % of control | [4] 93 % of control | [1] 92 % of control | dose: 125.0 mg/kg/injection, schedule: Q01DX Z (ip), vehicle: saline 97 % of control | [10] 96 % of control | [5] 95 % of control and 96 % of control | [2] 94 % of control | dose: 250.0 mg/kg/injection, schedule: Q01DX Z (ip), vehicle: saline 91 % of control | [11] 96 % of control | [3] 94 % of control | dose: 500.0 mg/kg/injection, schedule: Q01DX Z (ip), vehicle: saline 91 % of control | dose: 1000.0 mg/kg/injection, schedule: Q01DX Z (ip), vehicle: saline 91 % of control

Nc1ncnc2c1nnn2CCCCC(N)C(=O)O (stereo not drawn)
inactive: dose: 100.0 mg/kg/injection, schedule: Q04DX003 (ip), vehicle: saline 111 % of control | dose: 200.0 mg/kg/injection, schedule: Q04DX003 (ip), vehicle: saline 106 % of control | dose: 400.0 mg/kg/injection, schedule: Q04DX003 (ip), vehicle: saline 95 % of control

CCSCC1OC(n2cnc3c(N)ncnc32)CC1SCC (stereo not drawn)
inactive: dose: 50.0 mg/kg/injection, schedule: Q01DX001 (ip), vehicle: carboxymethylcellulose (CMC) 104 % of control | dose: 100.0 mg/kg/injection, schedule: Q01DX001 (ip), vehicle: carboxymethylcellulose (CMC) 104 % of control | [9] 98 % of control | dose: 200.0 mg/kg/injection, schedule: Q01DX001 (ip), vehicle: carboxymethylcellulose (CMC) 111 % of control | [10] 89 % of control | dose: 400.0 mg/kg/injection, schedule: Q01DX001 (ip), vehicle: carboxymethylcellulose (CMC) 101 % of control | [11] 92 % of control

CC1=NNC(=O)C1(Cl)c1ccc(N)cc1 (stereo not drawn)
inactive: [9] 102 % of control | [10] 100 % of control | [11] 100 % of control

O=C(Nc1ccc(Cl)cc1)Nc1cccc2ccccc12
inactive: [4] 91 % of control | [1] 94 % of control | [5] 89 % of control | [2] 94 % of control | dose: 400.0 mg/kg/injection, schedule: Q01DX009 (ip), vehicle: Klucel (hydroxypropylcellulose) (HPC) 97 % of control | [3] 93 % of control

CC(C)CCc1c(N)nc(N)nc1N
inactive: [6] 93 % of control | [7] 96 % of control

CCOC(=O)[CH2][Sn]([Br])([Br])[CH2]C(=O)OCC
inactive: dose: 100.0 mg/kg/injection, schedule: Q04DX002 (ip), vehicle: saline with Tween-80 94 % of control | dose: 200.0 mg/kg/injection, schedule: Q04DX002 (ip), vehicle: saline with Tween-80 89 % of control

O=S(=O)(O)c1ccc(Cl)cc1
inactive: [8] 96 % of control | dose: 200.0 mg/kg/injection, schedule: Q04DX003 (ip), vehicle: saline with Tween-80 104 % of control | dose: 400.0 mg/kg/injection, schedule: Q04DX003 (ip), vehicle: saline with Tween-80 106 % of control

From PubChem BioAssay AID248 (DTP/NCI, 2004)
